Test system: TNF-α
Test: Production of TNF-α by human monocytic cell line THP-1
Assay type: cell-based
Method: THP-1 cells are commercially available. Cultured cells can be placed in RPMI complete medium in microtitre plates (e.g. […] in 96 well plates) and after 24 hrs incubation, PMA (10 ng/mi) added to 96 well plate to differentiate THP-1 cells and to determine the effects on TNF-α and IL-10 production. The cells should be pre-treated with cucumber extract at, for example, 200 μg/ml to 25 μg/ml followed by 2 hr LPS (100 ng/ml) stimulation. Post incubation, the cell supernatant is aspirated from each of the wells into sterile micro centrifuge tubes and centrifuged at 1000 rpm for 2-3 mins to settle any cells if present. The cell supernatant is then used for evaluation of presence of TNF-α or IL-10 using ELISA. Sandwich ELISA plates coated with suitable antibody are widely available (e.g. R&D Systems, USA).
A second study indicated even greater activity for idoBR1 in human blood (significant at 0.01 μM) with pre-incubation. […] The data clearly indicate that idoBR1 can inhibit the production of TNF-α in human blood. Thus, it appears that it may be a potent anti-inflammatory agent. It also appears that it may be acting via a novel mechanism distinct from the steroid receptor pathways.

| SMILES | effect on TNF-α production from THP-1 cells (alone with LPS) | inhibition at 50 µM (Homo sapiens, THP-1, 50 μM, identical pretreatment) [%] |
| --- | --- | --- |
| CC#C[C@]1(O)CC[C@H]2[C@@H]3CCC4=CC(=O)CCC4=C3[C@@H](c3ccc(N(C)C)cc3)C[C@@]21C [Mifepristone, reference compound] | greatly amplified | – |
| C[C@@H]1C[C@H]2[C@@H]3CCC4=CC(=O)C=C[C@]4(C)[C@@]3(F)[C@@H](O)C[C@]2(C)[C@@]1(O)C(=O)CO [dexamethasone, reference compound] | – | > 65 |

— patent publication US12558348B2, “Bioactive phytochemicals” (Phytoquest Limited, priority 2019, dated 2026)
